Experimental data taken from patent US6517836B1, “Nitrophenylaziridine compounds and their use as prodrugs” (Auckland Uniservices Limited, priority 1998, dated 2003).
pIC50: −log10 of the molar value.

test system: Chinese hamster fibroblast NR− line (T78-1), V79/4 transfected with an empty shuttle vector; test: Cytotoxicity, 18 h drug exposure, V79 NR− line (T78-1); assay type: cell-based; conditions: Cricetulus griseus, T78-1, 18 h, read-out: V-79 NR− IC50
Excerpt: (§1) The Chinese hamster fibroblast NR− line (T78-1) is a V79/4 Chinese hamster fibroblast transfected with an empty shuttle vector, while the NR+ line (T79-A3) is the corresponding NR transfectant. The human colon carcinoma NR− line (WIDR) is wild-type, while the NR+ line (WC14 10) is the corresponding NR transfectant. The human ovarian carcinoma NR− line (SKOV3) is wild-type, while the NR+ line (SC3.2) is the corresponding NR transfectant. EMT6 is a mouse mammary carcinoma line, and EN2A is the NR-transformed counterpart.

Structure (SMILES) | pIC50
NC(=O)c1cc(N2CC2)c([N+](=O)[O-])cc1[N+](=O)[O-] [CB1954, 5-(aziridin-1-yl)-2,4-dinitrobenzamide, reference compound] | 3.40
COC(=O)CCNC(=O)c1cc(N2CC2)c([N+](=O)[O-])cc1[N+](=O)[O-] [Compound 8, 5-(aziridin-1-yl)-N-[2-(methoxycarbonyl)ethyl]-2,4-dinitrobenzamide] | 3.24

same assay, conditions: Cricetulus griseus; T78-1 cells, 18 h drug exposure; read-out: V-79 NR− IC50

Structure (SMILES) | pIC50
O=C(NCCn1ccnc1)c1cc(N2CC2)c([N+](=O)[O-])cc1[N+](=O)[O-] [Compound 7, 5-(aziridin-1-yl)-N-[2-(imidazol-1-yl)ethyl]-2,4-dinitrobenzamide] | 3.38

test system: Chinese hamster fibroblast NR+ line (T79-A3), NR transfectant; test: Cytotoxicity, 18 h drug exposure, V79 NR+ line (T79-A3); assay type: cell-based; conditions: Cricetulus griseus, Fibroblast, 18 h, read-out: V-79 NR+ IC50
Excerpt: as §1

Structure (SMILES) | pIC50
NC(=O)c1cc(N2CC2)c([N+](=O)[O-])cc1[N+](=O)[O-] [CB1954, 5-(aziridin-1-yl)-2,4-dinitrobenzamide, reference compound] | 6.52
COC(=O)CCNC(=O)c1cc(N2CC2)c([N+](=O)[O-])cc1[N+](=O)[O-] [Compound 8, 5-(aziridin-1-yl)-N-[2-(methoxycarbonyl)ethyl]-2,4-dinitrobenzamide] | 6.40

same assay, conditions: Cricetulus griseus, Fibroblast; T79-A3 cells, 18 h drug exposure; read-out: V-79 NR+ IC50

Structure (SMILES) | pIC50
O=C(NCCn1ccnc1)c1cc(N2CC2)c([N+](=O)[O-])cc1[N+](=O)[O-] [Compound 7, 5-(aziridin-1-yl)-N-[2-(imidazol-1-yl)ethyl]-2,4-dinitrobenzamide] | 6.41

same assay, conditions: T78-1 vs T79-A3; inter-experiment average

Structure (SMILES) | V-79 ratio of IC50s
NC(=O)c1cc(N2CC2)c([N+](=O)[O-])cc1[N+](=O)[O-] [CB1954, 5-(aziridin-1-yl)-2,4-dinitrobenzamide, reference compound] | 1200
O=C(NCCn1ccnc1)c1cc(N2CC2)c([N+](=O)[O-])cc1[N+](=O)[O-] [Compound 7, 5-(aziridin-1-yl)-N-[2-(imidazol-1-yl)ethyl]-2,4-dinitrobenzamide] | 1170
COC(=O)CCNC(=O)c1cc(N2CC2)c([N+](=O)[O-])cc1[N+](=O)[O-] [Compound 8, 5-(aziridin-1-yl)-N-[2-(methoxycarbonyl)ethyl]-2,4-dinitrobenzamide] | 1580

test system: human colon carcinoma NR− line (WIDR), wild-type; test: Cytotoxicity, 18 h drug exposure, WiDr NR− line; assay type: cell-based; conditions: Homo sapiens, WiDr, 18 h, read-out: WiDr NR− IC50
Excerpt: as §1

Structure (SMILES) | pIC50
NC(=O)c1cc(N2CC2)c([N+](=O)[O-])cc1[N+](=O)[O-] [CB1954, 5-(aziridin-1-yl)-2,4-dinitrobenzamide, reference compound] | 4.25
COC(=O)CCNC(=O)c1cc(N2CC2)c([N+](=O)[O-])cc1[N+](=O)[O-] [Compound 8, 5-(aziridin-1-yl)-N-[2-(methoxycarbonyl)ethyl]-2,4-dinitrobenzamide] | 3.91

same assay, conditions: Homo sapiens; WIDR cells, 18 h drug exposure; read-out: WiDr NR− IC50

Structure (SMILES) | pIC50
O=C(NCCn1ccnc1)c1cc(N2CC2)c([N+](=O)[O-])cc1[N+](=O)[O-] [Compound 7, 5-(aziridin-1-yl)-N-[2-(imidazol-1-yl)ethyl]-2,4-dinitrobenzamide] | 4.33

test system: human colon carcinoma NR+ line (WC14 10), NR transfectant; test: Cytotoxicity, 18 h drug exposure, WiDr NR+ line (WC14 10); assay type: cell-based; conditions: Homo sapiens, WiDr, 18 h, read-out: WiDr NR+ IC50
Excerpt: as §1

Structure (SMILES) | pIC50
NC(=O)c1cc(N2CC2)c([N+](=O)[O-])cc1[N+](=O)[O-] [CB1954, 5-(aziridin-1-yl)-2,4-dinitrobenzamide, reference compound] | 5.92
COC(=O)CCNC(=O)c1cc(N2CC2)c([N+](=O)[O-])cc1[N+](=O)[O-] [Compound 8, 5-(aziridin-1-yl)-N-[2-(methoxycarbonyl)ethyl]-2,4-dinitrobenzamide] | 5.64

same assay, conditions: Homo sapiens, WiDr; WC14 10 cells, 18 h drug exposure; read-out: WiDr NR+ IC50

Structure (SMILES) | pIC50
O=C(NCCn1ccnc1)c1cc(N2CC2)c([N+](=O)[O-])cc1[N+](=O)[O-] [Compound 7, 5-(aziridin-1-yl)-N-[2-(imidazol-1-yl)ethyl]-2,4-dinitrobenzamide] | 6.00

same assay, conditions: WIDR vs WC14 10; inter-experiment average

Structure (SMILES) | WiDr ratio of IC50s
NC(=O)c1cc(N2CC2)c([N+](=O)[O-])cc1[N+](=O)[O-] [CB1954, 5-(aziridin-1-yl)-2,4-dinitrobenzamide, reference compound] | 51
O=C(NCCn1ccnc1)c1cc(N2CC2)c([N+](=O)[O-])cc1[N+](=O)[O-] [Compound 7, 5-(aziridin-1-yl)-N-[2-(imidazol-1-yl)ethyl]-2,4-dinitrobenzamide] | 48
COC(=O)CCNC(=O)c1cc(N2CC2)c([N+](=O)[O-])cc1[N+](=O)[O-] [Compound 8, 5-(aziridin-1-yl)-N-[2-(methoxycarbonyl)ethyl]-2,4-dinitrobenzamide] | 51

test system: human ovarian carcinoma NR− line (SKOV3), wild-type; test: Cytotoxicity, 18 h drug exposure, SKOV3 NR− line; assay type: cell-based; conditions: Homo sapiens, SK-OV-3, 18 h, read-out: SKOV NR− IC50
Excerpt: as §1

Structure (SMILES) | pIC50
NC(=O)c1cc(N2CC2)c([N+](=O)[O-])cc1[N+](=O)[O-] [CB1954, 5-(aziridin-1-yl)-2,4-dinitrobenzamide, reference compound] | 3.74
COC(=O)CCNC(=O)c1cc(N2CC2)c([N+](=O)[O-])cc1[N+](=O)[O-] [Compound 8, 5-(aziridin-1-yl)-N-[2-(methoxycarbonyl)ethyl]-2,4-dinitrobenzamide] | 3.17

same assay, conditions: Homo sapiens, SK-OV-3; SKOV3 cells, 18 h drug exposure; read-out: SKOV NR− IC50

Structure (SMILES) | pIC50
O=C(NCCn1ccnc1)c1cc(N2CC2)c([N+](=O)[O-])cc1[N+](=O)[O-] [Compound 7, 5-(aziridin-1-yl)-N-[2-(imidazol-1-yl)ethyl]-2,4-dinitrobenzamide] | 4.21

test system: human ovarian carcinoma NR+ line (SC3.2), NR transfectant; test: Cytotoxicity, 18 h drug exposure, SKOV NR+ line (SC3.2); assay type: cell-based; conditions: Homo sapiens, 18 h, read-out: SKOV NR+ IC50
Excerpt: as §1

Structure (SMILES) | pIC50
NC(=O)c1cc(N2CC2)c([N+](=O)[O-])cc1[N+](=O)[O-] [CB1954, 5-(aziridin-1-yl)-2,4-dinitrobenzamide, reference compound] | 6.24
COC(=O)CCNC(=O)c1cc(N2CC2)c([N+](=O)[O-])cc1[N+](=O)[O-] [Compound 8, 5-(aziridin-1-yl)-N-[2-(methoxycarbonyl)ethyl]-2,4-dinitrobenzamide] | 5.60

same assay, conditions: Homo sapiens; SC3.2 cells, 18 h drug exposure; read-out: SKOV NR+ IC50

Structure (SMILES) | pIC50
O=C(NCCn1ccnc1)c1cc(N2CC2)c([N+](=O)[O-])cc1[N+](=O)[O-] [Compound 7, 5-(aziridin-1-yl)-N-[2-(imidazol-1-yl)ethyl]-2,4-dinitrobenzamide] | 6.24

same assay, conditions: SKOV3 vs SC3.2; inter-experiment average

Structure (SMILES) | SKOV ratio of IC50s
NC(=O)c1cc(N2CC2)c([N+](=O)[O-])cc1[N+](=O)[O-] [CB1954, 5-(aziridin-1-yl)-2,4-dinitrobenzamide, reference compound] | 357
O=C(NCCn1ccnc1)c1cc(N2CC2)c([N+](=O)[O-])cc1[N+](=O)[O-] [Compound 7, 5-(aziridin-1-yl)-N-[2-(imidazol-1-yl)ethyl]-2,4-dinitrobenzamide] | 104
COC(=O)CCNC(=O)c1cc(N2CC2)c([N+](=O)[O-])cc1[N+](=O)[O-] [Compound 8, 5-(aziridin-1-yl)-N-[2-(methoxycarbonyl)ethyl]-2,4-dinitrobenzamide] | 270

test system: EMT6 mouse mammary carcinoma line; test: Cytotoxicity, 18 h drug exposure, EMT6 NR− line; assay type: cell-based; conditions: Mus musculus, EMT6, 18 h, read-out: EMT6 NR− IC50
Excerpt: as §1

Structure (SMILES) | pIC50
NC(=O)c1cc(N2CC2)c([N+](=O)[O-])cc1[N+](=O)[O-] [CB1954, 5-(aziridin-1-yl)-2,4-dinitrobenzamide, reference compound] | 4.05

test system: EN2A, NR-transformed counterpart of EMT6; test: Cytotoxicity, 18 h drug exposure, EMT6 NR+ line (EN2A); assay type: cell-based, mouse; conditions: EMT6 vs EN2A; inter-experiment average
Excerpt: as §1

Structure (SMILES) | EMT6 ratio of IC50s
NC(=O)c1cc(N2CC2)c([N+](=O)[O-])cc1[N+](=O)[O-] [CB1954, 5-(aziridin-1-yl)-2,4-dinitrobenzamide, reference compound] | 1100

same assay, conditions: Mus musculus, EMT6, 18 h, read-out: EMT6 NR+ IC50

Structure (SMILES) | pIC50
NC(=O)c1cc(N2CC2)c([N+](=O)[O-])cc1[N+](=O)[O-] [CB1954, 5-(aziridin-1-yl)-2,4-dinitrobenzamide, reference compound] | 7.10
